Holding throughout (assay): NCI tumour cell line growth inhibition, 48 h
Assay [1] deals with DLD-1.
Assay [2] relates to DMS-273.
The subject of assay [3] is HOP-18.
Assay [4] concerns KM-20L2.
Assay [5] has as its system M19-MEL.
The subject of assay [6] is SNB-78.
The subject of assay [7] is RXF 631.
Assay [8] has as its system MDA-MB-435.
Assay [9] has as its system MDA-N.

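In this assay, cells in 96-well plates receive the compound at five concentrations for 48 hours. Endpoints are linearly interpolated between the surrounding concentrations. Here, GI50 denotes the concentration required for 50% inhibition of growth.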 Calls of active or inactive are those of the source. Rule as the data show it: active = GI50 up to about 1.1 µM and inactive = higher.

Consider `CCN1C(=O)N(C)C(O)c2c1nc1ccccn1c2=O` (stereo not drawn), for which the GI50 in assay [1] was 31.4 µM (inactive); in assay [2], 19.5 µM (inactive); in assay [3], 22.3 µM (inactive); in assay [4], 25.5 µM (inactive); in assay [5], 28.4 µM (inactive); in assay [6], 28.1 µM (inactive).
For the molecule `N/C(=N\O)N/N=C/c1cccc(F)c1`, the GI50 in assay [1] is 64 µM (inactive); in assay [2], 48.9 µM (inactive); in [3], 25.1 µM (inactive); in [4], 32.2 µM (inactive); in assay [5], 48.3 µM (inactive); in [7] it was 26.1 µM (inactive). In addition, the GI50 in assay [6] was > 100 µM (inactive).
`CCCCCCCC(=O)O[C@H]1[C@H]2[C@@H](CC1(C)C)C(=O)[C@]13O[C@H]1C(=O)[C@]1(CO1)[C@]23C`: the GI50 is 1.89 µM (inactive) in assay [1]; 5.96 µM (inactive) in assay [2]; 5.33 µM (inactive) in [3]; 4.89 µM (inactive) in assay [4]; 3.41 µM (inactive) in assay [5]; 24.2 µM (inactive) in assay [8]. The GI50 is 8.95 µM (inactive) in assay [9], 17.8 µM (inactive) in assay [7] and 4.94 µM (inactive) in assay [6].
With `Cn1cccc1/C=C/c1cc(Br)c(/C=C/c2cccn2C)cc1Br`, the GI50 in assay [1] was 0.643 µM (active); in assay [2] it was 18.5 µM (inactive); in [3], 5 µM (inactive); in assay [4], 16.3 µM (inactive); in assay [5], 18.4 µM (inactive); in assay [7], 13.9 µM (inactive).
As for `CCOC(=O)C1=C(C)N(NC(=O)Nc2ccccc2)C2(N)N(NC(=O)Nc3ccccc3)C(C)=C(C(=O)OCC)C12C(=O)OCC` (stereo not drawn), the GI50 in [1] is 53.8 µM (inactive); in assay [2], 41.9 µM (inactive); in assay [3], 26.7 µM (inactive); in [4] it was 75.9 µM (inactive); in [5], 43.3 µM (inactive); in assay [7], 51.9 µM (inactive). Further, the GI50 in assay [6] is 42.4 µM (inactive).
As for `CCCn1c(SCC)c2ccccc2c1-c1nc(F)nc(F)n1`, the GI50 in assay [2], in [4], in [5], in [7] and in assay [6] was > 100 µM (inactive) each time.
As to `Cc1cn(C2C=CC(=O)C(C)O2)c(=O)[nH]c1=O` (stereo not drawn), the GI50 was 14.1 µM (inactive) in assay [1]; 18.1 µM (inactive) in assay [2]; 15 µM (inactive) in assay [3]; 16.3 µM (inactive) in assay [4]; 15.8 µM (inactive) in assay [5]; 15.2 µM (inactive) in assay [7]. Also, the GI50 in assay [6] was 16.7 µM (inactive).
`CCOC(=O)C1=C(C)N2CCOC2(C)C(C(=O)OC)C1c1cccc(Cl)c1` (stereo not drawn): the GI50 in assay [1], in assay [2], in [3], in assay [4], in [5] and in [6] was > 100 µM (inactive) in each case.
With `O=C1CC(c2c(-c3ccccc3)[nH]c3ccccc23)C(=O)N1c1ccccc1` (stereo not drawn), the GI50 in assay [1] was 70.5 µM (inactive); in assay [2], > 100 µM (inactive); in [4] it was 95.1 µM (inactive); in assay [5], > 100 µM (inactive); in assay [7], 56.8 µM (inactive); in assay [6], > 100 µM (inactive).
Turning to `O=C(O)C[C@H]1CCCCC12CCOC2=O` (stereo partly drawn), the GI50 in assay [1], in [2], in assay [3], in assay [4], in assay [5] and in [7] was > 100 µM (inactive) in each case. In addition, the GI50 in assay [6] is > 100 µM (inactive).
Take `COc1ccc(S(=O)(=O)Nc2ccccc2C(=O)O)cc1`: the GI50 in [1], in assay [2], in assay [3], in assay [4], in assay [5] and in assay [7] was > 100 µM (inactive) throughout.
Regarding `O=C1C2C3C=C4c5ccccc5N(c5ccccc5)C4(C2C(=O)N1c1ccccc1)C1C(=O)N(c2ccccc2)C(=O)C31` (stereo not drawn), the GI50 in assay [1] is > 100 µM (inactive); in assay [3] it was > 100 µM (inactive); in assay [4], > 100 µM (inactive); in assay [5], 5.13 µM (inactive); in assay [7], > 100 µM (inactive); in [6], > 100 µM (inactive).
Regarding `CCCCCCCCCCCCCCCCc1c(O)nc(NN)nc1C(=O)OC`, the GI50 in assay [1], in assay [2], in [3], in [4], in [5] and in [7] was > 50 µM (inactive) each time. Further, the GI50 in [6] is > 50 µM (inactive).
On to `Cc1cc2c(cc1C)[n+]([O-])c(C(=O)C/C(=N/OCCCc1ccccc1)C(=O)Nc1cc(Cl)ccc1Cl)c(C)[n+]2[O-]`, for which the GI50 in assay [1], in assay [2], in assay [3], in [4], in [5] and in [7] was > 100 µM (inactive) in each case. Moreover, the GI50 in assay [6] was > 100 µM (inactive).
For `CC(C)c1cccc(=O)c(O)c1`, the GI50 was 1.73 µM (inactive) in [1]; 4 µM (inactive) in [2]; 1.4 µM (inactive) in assay [3]; 2.85 µM (inactive) in [4]; 2.15 µM (inactive) in assay [5]; 2.18 µM (inactive) in [9]. The GI50 was 1.25 µM (inactive) in assay [7] and 2.1 µM (inactive) in assay [6].
With `CC(=O)OCC(=O)[C@@]12OC(C)(C)O[C@@H]1C[C@H]1[C@@H]3CC(C=O)=C4C=C(OCCCl)CC[C@]4(C)[C@@]3(F)[C@@H](O)C[C@@]12C` [FORMOCORTAL], the GI50 in assay [1] is 23 µM (inactive); in [2], 19.9 µM (inactive); in [3] it was 18.5 µM (inactive); in assay [4], 11.8 µM (inactive); in assay [5], 22.3 µM (inactive); in assay [6], 15 µM (inactive).
With `Cc1ccc(SSCCCCS(=O)O)cc1`, the GI50 in assay [1] was 25.4 µM (inactive); in [2] it was 19.6 µM (inactive); in [3], 41.9 µM (inactive); in [4], 20.4 µM (inactive); in [5], 12.2 µM (inactive); in assay [7], 11.7 µM (inactive). Moreover, the GI50 in [6] is 25.1 µM (inactive).
With `COC1(OC)CC2OC1C1N=NN(C(=O)OC(C)(C)C)C21` (stereo not drawn), the GI50 is 34.8 µM (inactive) in assay [1]; > 100 µM (inactive) in assay [2]; > 100 µM (inactive) in assay [3]; > 100 µM (inactive) in [4]; > 100 µM (inactive) in assay [5]; > 100 µM (inactive) in [7]. Also, the GI50 in assay [6] was > 100 µM (inactive).
Consider `CN(C)CCC(=O)c1ccccc1`, for which the GI50 in assay [1] is 19.8 µM (inactive); in assay [2], > 58.2 µM (inactive); in assay [3], > 56.4 µM (inactive); in assay [4], > 43.8 µM (inactive); in assay [5], 33.2 µM (inactive); in assay [6], 38.2 µM (inactive).
As to `COc1ccc2c(c1OC)C(C=C(c1ccccc1)c1ccccc1)CN(C)C2` (stereo not drawn), the GI50 in [1] was 23.4 µM (inactive); in assay [2] it was 17.5 µM (inactive); in assay [3], 17.6 µM (inactive); in assay [4], 10.3 µM (inactive); in assay [5] it was 30.5 µM (inactive); in assay [7], 17.4 µM (inactive). In addition, in [6], the GI50 is 34.6 µM (inactive).
With `COC1C=CC(C(=O)[N+]2=Cc3[nH]c4ccccc4c3CC2)O1` (stereo not drawn), the GI50 was > 100 µM (inactive) in assay [1]; 82.2 µM (inactive) in assay [2]; > 100 µM (inactive) in assay [3]; > 100 µM (inactive) in assay [4]; > 100 µM (inactive) in [5]; > 100 µM (inactive) in assay [7]. Further, in assay [6], the GI50 is > 100 µM (inactive).
In the case of `COc1ccc(C(=O)C(C(=O)CCC(=O)Nc2cccc(Cl)c2)c2ccc(OC)cc2)cc1` (stereo not drawn), the GI50 in assay [1] was > 100 µM (inactive); in assay [2], > 100 µM (inactive); in assay [3], 53.3 µM (inactive); in assay [4] it was > 100 µM (inactive); in [5] it was > 100 µM (inactive); in [7], > 100 µM (inactive).
`Cc1[nH]c2ccccc2c1C1Cc2ccccc2N1C(=O)/C=C\C(=O)O` (stereo not drawn): the GI50 was 64.9 µM (inactive) in assay [1]; 58.2 µM (inactive) in assay [2]; 81.1 µM (inactive) in assay [4]; 34 µM (inactive) in assay [5]; > 100 µM (inactive) in assay [7]; 61.8 µM (inactive) in assay [6].
`CCOC(=O)/C(C#N)=C(O)/C(=C/c1ccccc1Cl)NC(=O)c1ccccc1`: the GI50 in [1] was > 100 µM (inactive); in [2], 31.5 µM (inactive); in assay [3] it was > 100 µM (inactive); in [4] it was > 100 µM (inactive); in assay [5], > 100 µM (inactive); in assay [6], > 100 µM (inactive).

For the origin of these results see ChEMBL document CHEMBL1201862, “PubChem BioAssay data set” (2004).
